Laboratory results reported in patent US8158621B2, “Methods of treating or preventing autoimmune diseases with 2,4-pyrimidinediamine compounds” (Rigel Pharmaceuticals, Inc., priority 2002, dated 2012).

What was measured:
[1] = format: in vivo; conditions: rat, 32 days
[2] = Rat collagen-induced arthritis (CIA); format: in vivo, LOU rats; conditions: for Blinded radiographic scores (scale 0-6): Day 28
Protocol: In both protocols, clinical scores were obtained daily, and body weights are measured twice weekly. At Day 28, radiographic scores were obtained, and scrum levels of collagen II antibody were measured by ELISA.

[3] = Oral bioavailability / pharmacokinetics in rats; conditions: rat, in vivo
Protocol: Over 50 2,4-pyrimidinediamine compounds of the invention were tested for oral bioavailability. For the study, compounds were dissolved in various vehicles (e.g. PEG 400 solution and CMC suspension) for intravenous and oral dosing in the rats. Following administration of the drug, plasma samples were obtained and extracted. The plasma concentrations of the compounds were determined by high performance liquid chromatography/tandem mass spectrometry (LC/MS/MS) methods. Pharmacokinetic analyses were performed based on the plasma concentration data. The pharmacokinetic parameters of interest include Clearance (CL), Volume of distribution at steady-state (Vss), terminal half-life (t1/2), and oral bioavailability (% F).

[4] = tested on: bone marrow derived mast cells (BMMC); experiment: BMMC high cell density IgE activation: histamine; format: cell-based, mouse; conditions: High Density; read-out: BMMC anti-IgE histamine
Protocol: (§1) After sensitizing, cells are counted, pelleted (1000 rpm, 5-10 minutes), and resuspended at 1-3×10^6 cells/ml in MT buffer. Add 100 ul of cell suspension to each well and 100 ul of compound dilutions. The final vehicle concentration is 0.5% DMSO. Incubate at 37° C. (5% CO2) for 1 hour. After 1 hour of compound treatment, stimulate cells with 6× stimulus (60 ng/ml DNP-BSA). Mix wells with the cells and allow plates to incubate at 37° C. (5% CO2) for one hour. After 1 hour incubation, pellet cells (10 minutes, 1000 RPM) and collect 200 ul per well of the supernatant, being careful not to disturb pellet, and transfer to a clean tube or 96-well plate. Place the supernatant plate on ice. During the 4-5 hour step (see next) perform the hexosiminidase assay. Resuspend cell pellet in 240 ul WEI-conditioned media containing 0.5% DMSO and corresponding concentration of compound. Incubate BMMC cells for 4-5 hours at 37° C. (5% CO2). After incubation, pellet cells (1000 RPM, 10 minutes) and collect 225 ul per well and place in −80° C. until ready to perform ELISAS. ELISAS are performed on appropriately diluted samples (determined empirically for each donor cell population so that the sample measurement falls within the standard curve) following the supplier's instructions.

CHMC cells [5] = experiment: ionomycin-induced Ca2+ flux in CHMC cells; format: cell-based, human; conditions: 10 μM
CHMC cells [6] = experiment: anti-IgE-induced Ca2+ flux in CHMC cells; format: cell-based, human; conditions: 10 μM
[7] = Non-clinical safety studies of R921218 (summary); parameters: species or system rodents and non-rodents; conditions: in vivo
Excerpt: A short discussion of key toxicology studies is provided.

[8] = 14-day repeat-dose intranasal toxicity study in Cynomolgus monkeys; format: in vivo; conditions: 14-day intranasal
Protocol: A 14-day repeat-dose intranasal toxicity study in Cynomolgus monkeys was performed at doses of 2.1, 4.5 or 6.3 mg/kg/day. In life parameters included: clinical observations, body weights, food consumption, ophthalmology, blood pressure, electrocardiography, hematology, clinical chemistry, urinalysis, immunotoxicological assessment, gross necropsy, organ weights, toxicokinetic assessments and histopathology (including the nasal cavity).

[9] = tested on: bone marrow derived mast cells (BMMC); experiment: BMMC high cell density IgE activation: LTC4; format: cell-based, mouse; conditions: High Density; read-out: BMMC anti-IgE LTC4
Protocol: as §1

[10] = Mouse model of allergic asthma (ovalbumin); format: in vivo; conditions: intranasal, 10 consecutive days (Day 7 through Day 16), 20 mg/kg
Excerpt: Mice are sensitized to ovalbumin (chicken protein) in the presence of an adjuvant (Alum) by the intraperitoneal route on day 0 and day 7. One week later, mice are challenged intranasally with ovalbumin on Days 14, 15 and 16 (more stringent model) or on Day 14 (less stringent model). This sensitization and challenge regimen leads to airway hyperresponsiveness and inflammation in the lungs, which are two dominant characteristics of human allergic asthma. In the mouse model, the in vivo airway responses are measured using a whole body plethysmograph which determines the PENH (enhanced Pause, Buxco Electronics). The PENH is a dimensionless value comprised of the peak inspiratory flow (PIF), peak expiratory flow (PEF), time of inspiration, time of expiration and relaxation time, and is considered a validated parameter of airway responsiveness. Responses to allergen challenge (OVA) are compared with animals challenged with saline only. Twenty-four hours after challenge, mice are exposed to increasing doses of methacholine (muscarinic receptor agonist) which results in smooth muscle contraction. […] In addition, a cellular infiltrate in the airway is observed in ovalbumin challenged mice when compared with the saline challenged mice. This cellular infiltrate is mainly characterized by eosinophils, but a smaller influx of neutrophils and mononuclear cells is also present. […]

Structure (SMILES): Nc1cccc(Nc2ncc(F)c(Nc3cccc(N)c3)n2)c1 [Compound R921302]
- tolerability, oral doses of 50, 150 and 300 mg/kg [1]: well tolerated
- arthritis score ([2]; 300 mg/kg at disease onset, Day 16 to Day 28): significantly lower arthritis score
- mean clinical scores compared with vehicle controls ([2]; 300 mg/kg/day from day of immunization, Days 10-28): significantly reduced
- erosions and soft tissue swelling ([2]; 300 mg/kg/day, prophylactically or after disease onset): precluded the development of erosions and reduced soft tissue swelling
- Blinded radiographic scores (scale 0-6) ([2]; once daily 150 mg/kg/day, prevention regimen): 2.4±0.006
- Blinded radiographic scores (scale 0-6) ([2]; once daily 300 mg/kg/day at onset of disease): 0.45±0.031
- Blinded radiographic scores (scale 0-6) ([2]; once daily 300 mg/kg/day, prevention regimen): 0.13 ±0.000001
- serum anti-collagen II antibody ([2]; data not shown): marked reduction
- metabolic stability in pharmacokinetics study [3]: most metabolically stable compound

Structure (SMILES): Oc1cccc(Nc2ncc(F)c(Nc3cccc(O)c3)n2)c1 [Compound R921218]
- IC50 [4]: 203 nM
- ionomycin-induced Ca2+ flux (CHMC cells [5]): no effect
- anti-IgE-induced Ca2+ flux (CHMC cells [6]): inhibited
- genetic toxicology testing [7]: no evidence for mutagenic or elastogenic potential
- NOAEL (no observed adverse effect level) [8]: 6.3 mg/kg/day
- IC50 [9]: 766 nM

Structure (SMILES): CNC(=O)COc1cccc(Nc2ncc(F)c(Nc3ccc4c(n3)NC(=O)CO4)n2)c1 [Compound R921304]
- ovalbumin-induced airway hyperresponsiveness to methacholine [10]: able to inhibit
